US11718610B2, “Compounds containing benzosultam” (MEDSHINE DISCOVERY INC., priority 2020, dated 2023)

How the values were obtained:
A375 cells = experiment: A375 (BRAF V600E) antiproliferative activity experiment (CellTiter-glo); type: cell-based; conditions: Homo sapiens, A-375, 120 h, cultured 5 days
Protocol: Experimental Embodiment 3: A375 (BRAF^V600E) Antiproliferative Activity Experiment
Cell line A375 (purchased from Procell). DMEM culture medium, penicillin/streptomycin antibiotics were purchased from Vicente, and fetal bovine serum was purchased from Biosera. CellTiter-glo (cell viability chemiluminescence detection reagent) reagent was purchased from Promega.
A375 cells were seeded in a white 96 well plate with […] of cell suspension per well containing 2000 of A375 cells. The cell plate was placed in a carbon dioxide incubator and cultured overnight. The compound to be tested was diluted 3-fold to the 9th concentration with a pipette, that is, diluted from 6 mmol to 0.91 μmol, and a double-duplicate experiment was set-up, 78 μmol of culture medium was added to the middle plate, then 2 μmol of gradient dilution compound per well was transferred to the middle plate according to the corresponding position, and 20 μmol per well was mixed and transferred to the cell plate. The concentration of the compound transferred to the cell plate ranged from 30 μmol to 4.57 nmol. The cell plate was placed in a carbon dioxide incubator and cultured for 5 days. Another cell plate was prepared, and the signal value was read as the maximum value (max value in the following equation) on the day of administration to participate in data analysis, 25 μmol of cell viability chemiluminescence detection reagent was added to each well of the cell plate and incubated at room temperature for 10 minutes to stabilize the luminescence signal. A multi-marker analyzer reading was used. After the incubation of the cell plate added with the compound was finished, 25 μmol of cell viability chemiluminescence detection reagent was added to each well of the cell plate and incubated at room temperature for 10 minutes to stabilize the luminescence signal. A multi-marker analyzer reading was used.
(§1) The equation (Sample−Min)/(Max−Min)*100% was used to convert the original data into inhibition rate, and the IC50 value could be obtained by curve fitting with four parameters (obtained by “log (inhibitor) vs. response—variable slope” mode in GraphPad Prism).

[1] = system: ERK phosphorylation in Calu-6 cells; experiment: Calu-6 (Kras Q61K) ERK phosphorylation inhibition experiment (HTRF); type: cell-based, human; conditions: Homo sapiens, Calu-6, 1 h, 1 hour incubation with compound
Protocol: Experimental Embodiment 5: Calu-6 (Kras^Q61K) ERK Phosphorylation Inhibition Experiment
1) the cells were resuscitated and cultured to logarithmic growth phase, digested with trypsin, seeded in 96-well plates with 30000 cells per well, and incubated overnight in an incubator.
2) 1 μL of gradient compound dissolved with DMSO was added to a 96-well plate and placed back into an incubator to incubate for 1 hour.
3) The cell plates were removed out, and the culture medium was poured off, and 50 μL of cell lysate (with 1% blocking peptide) was added to each well.
4) The lysate plate was mixed at 500 rpm and incubated and lysed at room temperature for 30 minutes.
5) The antibody mixture in the kit was prepared at a ratio of 1:1:38.
6) 16 μL of cell lysate was transferred to the HTRF plate per well, then the 4 μL of the configured antibody mixture was added thereto.
7) After incubation overnight, the plate was read with Envision, and the fitted curve was obtained according to the ratio (the ratio of fluorescence intensity of […]) and the EC50 was calculated according to the four-parameter fitting formula Y=Bottom+(Top−Bottom)/(1+10^((Log EC50−X)*HillSlope)) of Graphpad.

[2] = system: human lung cancer Calu-6 cell subcutaneous xenograft tumor; experiment: In vivo pharmacodynamic experiment, BALB/c nude mouse model of subcutaneous xenograft tumors of human lung cancer Calu-6 cells; conditions: 50 mg/kg oral (PO) once a day (QD), Calu-6 xenograft in BALB/c nude mice, vs solvent control; P<0.01
Protocol: Experimental Embodiment 7: In Vivo Pharmacodynamic Experiment of the BALB/c Nude Mouse Model of Subcutaneous Xenograft Tumors of Human Lung Cancer Calu-6 Cells
Age of arrival: 6 to 8 weeks old
Cells: Calu-6 cells of human lung cancer were cultured in vitro, and 0.2 Units/mL bovine insulin, 10% fetal bovine serum were added to EMEM culture medium in a 37° C. and 5% CO2 incubator for culture. Conventional digestion with trypsin-EDTA was performed twice a week for passage. When the cell saturation was 80%-90% and the number of the cells reached the requirement, and the cells were collected, counted, and seeded.
Cell inoculation: 0.2 mL of Calu-6 cell (mixed in a ratio of 1:1 with matrix gel) was subcutaneously inoculated on the right back of each mouse, and group administration was started when the average tumor volume reached […],
Tumor diameters were measured with vernier calipers twice a week. The calculation formula of tumor volume was: V=0.5a×b^2, and a and b represent the long and short diameters of the tumor, respectively.
The tumor inhibition efficacy of the compounds was evaluated by TGI (%) or relative tumor proliferation rate T/C (%). Relative tumor proliferation rate T/C (%)=TRTV/CRTV×100% (TRTV: RTV in the treatment group; CRTV: RTV in the negative control group). The relative tumor volume (RTV) was calculated according to the results of tumor measurement, and the formula was RTV=Vt/V0, wherein V0 was the tumor volume measured at the time of group administration (i.e., D0), and Vt was the tumor volume measured at a certain measurement, and TRTV and CRTV were taken on the same day.
TGI (%), reflecting the tumor growth inhibition rate. TGI (%)=[1−(average tumor volume at the end of administration in a treatment group−average tumor volume at the beginning of administration in this treatment group)/(average tumor volume at the end of treatment in a solvent control group−average tumor volume at the beginning of treatment in this solvent control group)]×100%.
Statistical analysis was based on the data of RTV at the end of the experiment, and SPSS software was used for analysis. One-way ANOVA was used for comparison between two groups, and the variance was uneven (there was significant difference in F value), and Games-Howell method was used to test, p<0.05 was considered a significant difference.

Colo205 cells = experiment: Colo205 (BRAF V600E) antiproliferative activity experiment (CellTiter-glo); type: cell-based; conditions: Homo sapiens, COLO 205, 72 h, cultured 3 days
Protocol: Experimental Embodiment 4: Colo205 (BRAF^V600E) Antiproliferative Activity Experiment
Cell line COLO205 (purchased from Procell), RPMI1640 culture medium, penicillin/streptomycin antibiotics were purchased from Vicente, and fetal bovine serum was purchased from Biosera. CellTiter-glo (cell viability chemiluminescence detection reagent) reagent was purchased from Promega.
COLO205 cells were seeded in a white 96-well plate with […] of cell suspension per well containing 3000 of COLO205 cells. The cell plate was placed in a carbon dioxide incubator and cultured overnight. The compound to be tested was diluted 3-fold to the 9th concentration with a pipette, that is, diluted from […], and a double-duplicate experiment was set-up. 78 μmol of culture medium was added to the middle plate, then 2 μmol of gradient dilution compound per well was transferred to the middle plate according to the corresponding position, and 20 μmol of per well was mixed and transferred to the cell plate. The concentration of the compound transferred to the cell plate ranged from 1 μmol to 0.15 nmol. The cell plate was placed in a carbon dioxide incubator and cultured for 3 days. Another cell plate was prepared, and the signal value was read as the maximum value (max value in the following equation) on the day of administration to participate in data analysis. 25 μmol of cell viability chemiluminescence detection reagent was added to each well of the cell plate and incubated at room temperature for 10 minutes to stabilize the luminescence signal. A multi-marker analyzer reading was used. After the incubation of the cell plate added with the compound was finished, 25 μmol of cell viability chemiluminescence detection reagent was added to each well of the cell plate and incubated at room temperature for 10 minutes to stabilize the luminescence signal. A multi-marker analyzer reading was used.
as §1

IC50 (A375 cells)	IC50 [1]	IC50 (Colo205 cells)	Structure (SMILES)	TGI (tumor growth inhibition rate) [2]
15 nM	5.88 nM		COc1cc(F)cc([C@@H](CO)NC(=O)[C@@H](C)N2Cc3ccc(-c4nc(NC5CCOCC5)ncc4Cl)cc3S2(=O)=O)c1 [Compound 1]	107%
14 nM	3.99 nM	14 nM	[2H]C1([2H])CC(Nc2ncc(Cl)c(-c3ccc4c(c3)S(=O)(=O)N([C@H](C)C(=O)N[C@H](CO)c3cc(F)cc(OC)c3)C4)n2)CC([2H])([2H])O1 [Compound 9]	108%
16 nM	6.51 nM	16 nM	COc1cc(F)cc([C@@H](CO)NC(=O)[C@@H](C)N2Cc3ccc(-c4nc(N[C@H]5CCOC[C@H]5F)ncc4Cl)cc3S2(=O)=O)c1 [Compound 11]	109%
13 nM	3.98 nM	16 nM	COc1cc(F)cc([C@@H](CO)NC(=O)[C@@H](C)N2Cc3ccc(-c4nc(NC5CCOCC5)ncc4Br)cc3S2(=O)=O)c1 [Compound 3]	110%
